These results are taken from ChEMBL document CHEMBL1129868 (Bioorg Med Chem Lett, 1997).

In one experiment the target is Adrenergic receptor beta (Rattus norvegicus, UniProt P18090+P10608+P26255). The experiment is described as follows: The compound was tested for its ability to inhibit (-)-[3H]dihydroalprenolol binding to beta-adrenergic receptor sites in rat cortex.
A short description of experiment [1]: Ratio of beta-1-adrenergic blocking effect to that of beta 2 -adrenergic blocking effect. It is filed as functional.
In experiment [2] the target is Beta-1 adrenergic receptor (Cavia porcellus, UniProt B0FL73). The experiment is described as follows: Tested for beta-1-adrenergic blocking effect by measuring the ability to inhibit the positive inotropic effect of isoproterenol on the isolated right atrium of guinea pigs. It is filed as functional, tissue-based, Cardiac atrium.
Beta-1 adrenergic receptor, sequence (B0FL73 whole entry): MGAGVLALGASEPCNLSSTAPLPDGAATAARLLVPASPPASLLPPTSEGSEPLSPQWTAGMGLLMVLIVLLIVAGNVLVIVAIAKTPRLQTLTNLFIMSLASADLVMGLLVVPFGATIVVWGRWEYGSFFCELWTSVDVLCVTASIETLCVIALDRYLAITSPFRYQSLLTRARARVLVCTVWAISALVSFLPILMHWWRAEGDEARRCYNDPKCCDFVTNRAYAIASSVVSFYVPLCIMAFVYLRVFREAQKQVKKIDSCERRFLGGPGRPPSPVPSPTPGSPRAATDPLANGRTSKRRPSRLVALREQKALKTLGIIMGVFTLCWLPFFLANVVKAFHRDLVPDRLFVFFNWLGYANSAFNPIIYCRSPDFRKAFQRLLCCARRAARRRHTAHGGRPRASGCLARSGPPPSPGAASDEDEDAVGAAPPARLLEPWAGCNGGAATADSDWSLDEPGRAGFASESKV

SMILES strings stand for the structures. pIC50: −log10 of the molar value.

As for `COCCc1ccc(OC(F)(F)[C@H](O)CNC(C)C)cc1`, the IC50 (as a rule, the concentration needed to halve the response being measured) at Adrenergic receptor beta was above 100 µM.
As for `COCCc1ccc(OC(F)(F)[C@@H](O)CNC(C)C)cc1`, the Ratio in experiment [1] came out at 0.63. For the same compound, the IC50 at Adrenergic receptor beta is 1.54 µM. The pIC50 (usually the IC50 on a negative log10 scale, so that one unit is a factor of ten) in experiment [2] is 5.87.
